Test results as given in patent US20210024499A1, “OXIDIZED BIS(3-INDOLYL)METHANES AND USES THEREOF” (Sanford Burnam Prebys Medical Discovery Institute, priority 2018, published 2021).
Values joined by “and” are separate entries in the source; they are usually repeats but may differ in a detail not shown here. Equal values may be shown once.

Key:
Bcl-2−/− HeLa cells = experiment: Mitochondrial ROS, Bcl-2 knockout HeLa; type: cell-based
Procedure: (§1) Loss of mitochondrial membrane potential (Avm) represents one of the hallmarks of apoptosis. A JC-1 probe was employed to measure mitochondrial depolarization in cancer cells. MDA-MB-231 breast cancer cells were treated with different concentration of test compounds for 6 hours. JC-1 staining solution (5 μg/ml) was added at 37° C. for 20 min. After washing with PBS twice, mitochondrial membrane potentials were monitored by determining the relative amounts of dual emission from a multiple fluorescence reader. The fluorescence in cells was quantitatively analyzed by flow cytometry. Mitochondrial depolarization is depicted by an increase in the green/red fluorescence intensity ratio. ROS were monitored with the oxiadtion-senstive fluorescent probe 2′7′-dichlorodihydroflurescenin diacetate (DCF-DA).
(§2) In addition, Bcl-2^−/−HeLa cells were more resistant than the parental HeLa cells to Compound 1 in its induction of the mitochondrial membrane potential loss measured by JC1 staining and in the release of mitochondrial ROS (as performed in Example A-12).

Bcl-2−/−MEF cells = experiment: Mitochondrial ROS, Bcl-2-/- MEF; type: cell-based, mouse
Procedure: as §1
In addition, Bcl-2^−/−MEF cells were more resistant than the parental MEF cells to Compound 1 in its induction of the mitochondrial membrane potential loss measured by JC1 staining and in the release of mitochondrial ROS (as performed in Example A-12).

Nur77−/−MEFs = experiment: PARP cleavage, Nur77-/- MEFs; type: cell-based, mouse; details: 0.5 μM
Procedure: The apoptotic effect of Compound 1 was examined in mouse embryonic fibroblast (MEF) and MEF lacking Nur77 (Nur77^−/−MEF). […] Induction of PARP cleavage (as performed in Example A-7) in MEFs by Compound 1 at 0.5 μM was also attenuated in Nur77^−/−MEFs.

[1] = tested on: Nur77 interaction with Bcl-2; experiment: Cell-based co-immunoprecipitation of Nur77 and Bcl-2
Procedure: Western blotting and co-immunopreciptations (co-IP) were performed. Briefly, cells transfected with or without expression vectors for Nur77 and Bcl-2 were treated with test compounds for 2 hours. The effect of compounds on the interaction of endogenous or transfected Nur77 and Bcl-2 was analyzed by co-immunoprecipitation using appropriate antibodies. Proteins immunoprecipitated from cells by an appropriate anti-Nur77 or anti-Bcl-2 antibody were analyzed by Western blotting.

MDA-MB-231 cells = experiment: Flow cytometry-based Annexin V/PI apoptosis assay, MDA-MB-231; type: cell-based; details: 1 μM, 6 hours
parental HeLa cells = experiment: Annexin V/PI staining, parental HeLa; type: cell-based; details: methanesulfonate
HCT116 cancer cells = experiment: Cell viability (MTT) assay, HCT116; type: cell-based; details: Homo sapiens, HCT-116; inhibiting the growth of HCT116 cancer cells, cell viability assay (Table 5)
Procedure: (§3) Cell viability was analyzed by using a colorimetric 3-(4,5-dimethylthiazol-[…]2-yl)-2,5-diphenyletetrazolium Bromide (MTT) assay that determines mitochondrial dehydrogenase activities in the living cells with a colorimetric method. Cells treated with test compounds were incubated with MTT and their effect on the viability of the cells was assayed by the ability of treated cells to reduce the yellow tetrazolium dye MTT to its insoluble formazan, which has a purple color. […]

MDA-MB-231 cancer cells = experiment: Cell viability (MTT) assay, MDA-MB-231; type: cell-based; details: Homo sapiens; inhibiting the growth of MDA-MB-231 cancer cells, cell viability assay (Table 6)
Procedure: as §3

SW480 cells = experiment: DAPI staining for apoptosis, SW480; type: cell-based; details: 0.5 μM, 6 hours, counted in 200 cells
Procedure: In SW480 cells, about 60% apoptotic cells were detected when cells were treated with Compound 1 compared to less than 5% when cells were not treated with Compound 1. Apoptotic cells were counted in 200 cells.

Bcl-2−/−HeLa cells = experiment: Mitochondrial membrane potential (JC1), Bcl-2 knockout HeLa; type: cell-based; details: 0.5 μM, 6 h
Procedure: as §1, §2

[2] = molecular target: T1, Nur77-LBD interaction with GST-Bcl-2 (Homo sapiens, UniProt P22736); experiment: GST-pull down of Nur77-LBD by GST-Bcl-2; type: binding; details: in vitro, GST-Bcl-2, FIG. 11
T1 construct: incubated with purified His-Nur77-LBD (0.2 mg) in the presence of Compound 1; made in house
Procedure: GST or GST-Bcl-2 fusion protein (0.5 mg) was immobilized on glutathione-Sepharose beads and incubated with purified His-Nur77-LBD (0.2 mg) in the presence of Compound 1 for 1 hour at room temperature to promote GST-Bcl-2 interaction with His-Nur77-LBD. Bound Nur77-LBD was analyzed by Western blotting.

Nur77 [3] = experiment: Cellular fractionation and immunostaining: mitochondrial targeting of Nur77; type: cell-based
Procedure: (§4) For cellular fractionation, cells were lysed in cold buffer A (10 mM HEPES-KOH (pH 7.9), 1.5 mM MgCl2, 10 mM KCl, 0.5 mM dithiothreitol) with a cocktail of proteinase inhibitors on ice for 10 min as described. Cytoplasmic fraction was collected by centrifuging at 6000 rpm for 30 seconds. Pellets containing nuclei were resuspended in cold high-salt buffer C (20 mM HEPES-KOH (pH 7.9), 25% glycerol, 420 mM NaCl, 1.5 mM MgCl2, 0.2 mM EDTA, 0.5 mM dithiothreitol) with a cocktail of proteinase inhibitors on ice for 30 minutes.

Nur77 [4] = molecular target: T2, Nur77 (Homo sapiens, UniProt P22736); experiment: as above; type: cell-based
T2 construct: expressed in transfected cells
Procedure: as §4

HeLa cells = experiment: Mitochondrial membrane potential (JC1), HeLa; type: cell-based; details: 6 h
Procedure: as §1
Furthermore, Nur77^−/−HeLa cells were more resistant than the parental HeLa cells to Compound 1 in its induction of the mitochondrial membrane potential loss measured by JC1 staining and in the release of mitochondrial ROS (as performed in Example A-12).
as §2

MEFs = experiment: DAPI staining for apoptosis, MEFs; type: cell-based, mouse; details: 0.5 μM
From the text: The apoptotic effect of Compound 1 was also examined in mouse embryonic fibroblast (MEF) and MEF lacking Bcl-2 (Bcl-2^−/−MEF). […] Apoptotic cells were counted in 200 cells.

T2 sequence (P22736 whole entry): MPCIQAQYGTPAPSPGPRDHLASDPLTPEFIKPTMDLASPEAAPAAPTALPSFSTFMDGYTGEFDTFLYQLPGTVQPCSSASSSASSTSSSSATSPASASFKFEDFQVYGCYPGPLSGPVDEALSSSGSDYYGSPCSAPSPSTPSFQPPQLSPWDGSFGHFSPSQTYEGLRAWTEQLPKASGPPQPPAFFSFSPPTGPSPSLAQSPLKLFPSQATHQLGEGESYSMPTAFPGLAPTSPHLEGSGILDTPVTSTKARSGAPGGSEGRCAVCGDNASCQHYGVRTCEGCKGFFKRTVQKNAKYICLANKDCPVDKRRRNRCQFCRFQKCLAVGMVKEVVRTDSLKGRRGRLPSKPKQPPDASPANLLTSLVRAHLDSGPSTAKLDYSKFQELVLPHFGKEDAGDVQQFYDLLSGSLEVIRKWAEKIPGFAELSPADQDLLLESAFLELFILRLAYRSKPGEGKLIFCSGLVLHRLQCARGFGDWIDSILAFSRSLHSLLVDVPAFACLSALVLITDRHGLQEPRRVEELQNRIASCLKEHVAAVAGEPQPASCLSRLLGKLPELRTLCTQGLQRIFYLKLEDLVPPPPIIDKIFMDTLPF
T1 sequence (P22736 360-595 limits assumed): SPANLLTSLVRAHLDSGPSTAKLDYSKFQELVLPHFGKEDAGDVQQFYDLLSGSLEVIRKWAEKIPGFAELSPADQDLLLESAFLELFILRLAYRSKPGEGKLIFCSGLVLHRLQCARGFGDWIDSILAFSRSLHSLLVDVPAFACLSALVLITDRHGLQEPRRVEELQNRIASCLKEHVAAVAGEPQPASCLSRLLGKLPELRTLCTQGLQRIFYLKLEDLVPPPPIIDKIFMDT
T1 sequence (P10415 whole entry partner, the tested form may be a part): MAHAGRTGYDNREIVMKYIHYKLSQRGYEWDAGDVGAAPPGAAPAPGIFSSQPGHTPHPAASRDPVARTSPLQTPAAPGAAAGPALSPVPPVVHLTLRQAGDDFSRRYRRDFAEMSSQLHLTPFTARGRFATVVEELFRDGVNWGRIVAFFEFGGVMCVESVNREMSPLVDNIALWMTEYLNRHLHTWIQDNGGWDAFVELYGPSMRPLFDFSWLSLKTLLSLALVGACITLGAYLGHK

FC(F)(F)c1ccc([C+](c2c[nH]c3ccccc23)c2c[nH]c3ccccc23)cc1 [Compound 1, Bis(1H-indol-3-yl)(4-(trifluoromethyl)phenyl)methylium methanesulfonate]
increase in mito-ROS relative to regular HeLa cells (Bcl-2−/− HeLa cells): smaller increase | increase in mito-ROS relative to regular MEF cells (Bcl-2−/−MEF cells): smaller increase | induction of PARP cleavage relative to MEFs (Nur77−/−MEFs): attenuated | Nur77 interaction with Bcl-2 (Co-IP) ([1]; Nur77 transfected in HeLa cells): interacted with Bcl-2 | endogenous Nur77 immunoprecipitated with endogenous Bcl-2 ([1]; anti-Bcl-2 antibody): specifically immunoprecipitated together with endogenous Bcl-2 | Nur77 or Nur77-LBD interaction with Bcl-2 (Co-IP) ([1]; transfected in HEK293T cells): interacted with Bcl-2 | apoptotic cells (Annexin V/PI) (MDA-MB-231 cells): about 31.63% | apoptotic effect (Annexin V/PI staining) (parental HeLa cells): 35.55% and 24.59% | IC50 (HCT116 cancer cells): < 500 nM | IC50 (MDA-MB-231 cancer cells): < 500 nM | apoptotic cells (DAPI staining) (SW480 cells): about 60% | JC1 green to red ratio (Bcl-2−/−HeLa cells): no change | Nur77-LBD pulled down (GST-pull down) [2]: concentration dependent manner | transfected GFP-Nur77-LBD colocalization with Hsp60 (Nur77 [3]; confocal microscopy and cellular fractionation): colocalized extensively with the mitochondria-specific Hsp60 protein | Myc-Nur77-LBD colocalization with mitochondria (Nur77 [3]; immunostaining): colocalized extensively with the mitochondria | transfected GFP-Nur77 in heavy membrane (HM) fraction (Nur77 [4]; cellular fractionation): accumulated in the mitochondria-enriched heavy membrane (HM) fraction | Myc-Nur77 in heavy membrane (HM) fraction (Nur77 [4]; mitochondria fractionation, 1μM): accumulated in the mitochondria-enriched heavy membrane (HM) fraction | JC1 green to red ratio (control 100%) (HeLa cells; 0.5 μM): 195% | JC1 green to red ratio (control 100%) (HeLa cells; 1 μM): 190% | cells with chromatin condensation and nuclear fragmentation (DAPI) (MEFs): 40%
